Converted amounts (≈) assume the structure as drawn. Like-named read-outs stand apart in the source and are kept apart here.
Tests used:
[1] = system: mouse L cells; assay: Reversal of Cytotoxic Activity on mouse L cells
[2] = system: L cells; assay: Cell Culture Cytotoxicity Test, L cells; type: cell-based; settings: Mus musculus; 50 % of control; 70-76 hours of incubation; read-out: Concentration giving 50 % of Control, L-Cells
Method: (§1) B. Cell Culture Cytotoxicity Test Data
(§2) The two routine indicator cell lines used are (1.) D98, a twice-cloned derivative of Detroit 98s from American Type Culture Collection (ATCC) strain CCL 18.1, from human sternal bone marrow and (2.) L, a cloned derivative from NCTC 929 (ATCC CCL1,) a C3 H/An from mouse connective tissue. Inoculation densities for L and D98 cells are 1.0 and 1.5×10^5 cells, per cm^2, respectively. Control cells are grown in Eagle's MEM (Earle's salts, 10% horse serum, 100 units/ml potassium penicillin G and 100 μg/ml streptomycin) and should show at least two doublings during the test period. Test plates are seeded with similar quantities of cells and are grown in the same medium with test compounds added. Total "cell counts" are made with an electronic cell counter after 70-76 hours of incubation with one medium change at 20-26 hours. Dose response curves are prepared by plotting percent of control vs. concentration of compound.
(§3) The compounds of the invention included in this test and the results are as follows.

[3] = colour change on extended exposure to light; type: physicochemical; settings: white powder
[4] = system: D98 cells; assay: Cell Culture Cytotoxicity Test, D98 cells; type: cell-based; settings: Homo sapiens; 50 % of control; 70-76 hours of incubation; read-out: Concentration giving 50 % of Control, D-98 Cells
Method: as §1, §2, §3

[5] = system: yellow fever virus; settings: in words
[6] = system: Spiroplasma citri; assay: Activity Against Spiroplasma citri, Sensitivity Test; type: cell-based; settings: for MIC: Spiroplasma citri, 48 h, 32° C., no color change or two day delay in color change; for activity against the mycoplasma, Spiroplasma citri: in words
Method: D. Data for Activity Against Spiroplasma citri, Sensitivity Test
Frozen broth cultures are diluted to a predetermined titre of 100 color changing units for the test. Organisms are grown in Difco PPLO broth base with added serum, glucose, phenol red, ampicillin, thallium acetate and yeast extract. Incubation is at 32° C. Incubation with varying levels of the test compound in the above medium are performed in well plates and an amount of Spiroplasma citri cells is added that will produce a color change by a fixed time of growth. The lowest concentration of compound that fails to produce a color change or gives a two day delay in color change indicates minimum inhibitory concentration.
The compounds of the invention included in this test and the results are as follows: […]

[7] = system: mouse L cells
[8] = system: Lactobacillus casei; assay: activity against Lactobacillus casei; type: cell-based; settings: in words
[9] = system: lymphocytic leukemia P388/0; assay: Lymphocytic Leukemia P388/0 Test (survival, mice); type: in vivo, CD2-F1 mice
Excerpt: A. Anti-neoplastic Activity Data for Lymohocytic Leukemia P388/0 Test
The tests employed for the evaluation of anti-neoplastic activity of the compounds of the present invention are essentially those used in the Tumor Panel of the Developmental Therapeutics Program, Division of Cancer Treatment, National Cancer Institute, A. Goldin, et al., Methods in Cancer Research, Vol. XVI, p. 165, Academic Press (1979). Some modifications, in dose level and schedule have been made to increase the testing efficiency.
CD2-F1 -mice, of the same sex, weighing within a 3 g range surrounding 20 g, are used for this test. Control and test animals are injected intraperitoneally with a suspension of […] viable P388/0 tumor cells on day 0. In each test, several dose levels which bracket the LD20 of the compound are evaluated; each dose level group contains six animals. The test compound is prepared either in physiologic saline containing 0.05% Tween 80 or distilled water containing 5% dextrose and is administered intraperitoneally on the indicated schedule relative to tumor implant. Doses are on a mg/kg basis according to individual animals' body weights. The day of death for each animal is recorded, the median identified for each group and the percent increase in life span (% ILS) is calculated from the ratio of survival time of treatment to control groups. The criterion for activity is % ILS greater than or equal to 20%.
The compound of the invention included in this test was the compound of Example 1, namely N-[4-[3-(2,4-diamino-1,6-dihydro-6-oxo-5-pyrimidinyl)propylamino]benzoyl]- L-glutamic acid and the results are as follows.

[10] = system: Streptococcus faecium; assay: activity against Streptococcus faecium; type: cell-based; settings: in words

NC(=O)c1ncn([C@@H]2O[C@H](COP(=O)(O)O)[C@@H](O)[C@H]2O)c1N [AICAR, 5-aminoimidazole-4-carboxamide ribonucleotide, reference compound]
reversal of the cytotoxicity of the compound of Example 3 ([1]; rescue agent against Example 3): able to reverse the cytotoxicity

CN(CCc1c(N)nc(N)[nH]c1=O)c1ccc(C(=O)N[C@@H](CCC(=O)O)C(=O)O)cc1 [Example 5, N-[4-[2-(2,4-diamino-1,6-dihydro-6-oxo-5-pyrimidinyl)ethyl-N-methylamino]benzoyl]-L-glutamic acid]
IC50 [2]: 750 nM | colour change upon extended exposure to light [3]: became tan upon extended exposure to light | IC50 [4]: 7000 nM

Nc1nc(N)c(CCCN(C=O)c2ccc(C(=O)N[C@@H](CCC(=O)O)C(=O)O)cc2)c(=O)[nH]1 [Example 3, N-[4-[3-(2,4-Diamino-1,6-dihydro-6-oxo-5-pyrimidinyl)-N-formylpropylamino]benzoyl]-L-glutamic acid]
IC50 [2]: 18 nM | activity against yellow fever virus [5]: some activity | activity at 0.04 µM ([1]; Mus musculus, read-out: % of Control, compound alone, 4 × 10^-8 M): 37% | IC50 [4]: 210 nM | MIC [6]: 0.1 µM (≈ 0.046 µg/mL) | activity against the mycoplasma, Spiroplasma citri [6]: activity

Nc1nc2c(c(=O)[nH]1)N(C=O)C(CNc1ccc(C(=O)N[C@@H](CCC(=O)O)C(=O)O)cc1)CN2 (stereo partly shown) [calcium leucovorin]
reversal of the cytotoxicity of the compound of Example 1 [7]: able to reverse the cytotoxicity | reversal of the cytotoxicity of the compound of Example 3 [7]: able to reverse the cytotoxicity

CN(CCCc1c(N)nc(N)[nH]c1=O)c1ccc(C(=O)N[C@@H](CCC(=O)O)C(=O)O)cc1 [Example 2, N-[4-[3-(2,4-diamino-1,6-dihydro-6-dihydro-6-oxo-5-pyrimidinyl)-N-methylpropylamino]benzoyl]-L-glutamic acid]
IC50 [2]: 400 nM | IC50 [4]: 3000 nM | MIC [6]: 0.1 µM (≈ 0.0446 µg/mL) | activity against the mycoplasma, Spiroplasma citri [6]: activity

Nc1nc(N)c(CCNc2ccc(C(=O)N[C@@H](CCC(=O)O)C(=O)O)cc2)c(=O)[nH]1 [Example 4, N-[4-[2-(2,4-diamino-1,6-dihydro-6-oxo-5-pyrimidinyl)ethylamino]benzoyl]-L-glutamic acid]
IC50 [2]: 400 nM | IC50 [4]: 700 nM

Nc1nc(N)c(CCCNc2ccc(C(=O)N[C@@H](CCC(=O)O)C(=O)O)cc2)c(=O)[nH]1 [Example 1, N-[4-[3-(2,4-diamino-1,6-dihydro-6-oxo-5-pyrimidinyl)propylamino]benzoyl]-L-glutamic acid]
activity against Lactobacillus casei [8]: activity | IC50 [2]: 88 nM | % Increased Life Span ([9]; 2.5 mg/kg i.p., twice a day, on days 1, 2 and 3): +20% | % Increased Life Span ([9]; 5 mg/kg i.p., every 4 hours for 3 doses on days 1-4): +22% | % Increased Life Span ([9]; 5 mg/kg i.p., every hour for 8 doses on days 1 and 3): +60% | % Increased Life Span ([9]; 5 mg/kg i.p., twice a day, on days 1, 2, and 3): +35% | % Increased Life Span ([9]; 7.5 mg/kg i.p., twice a day, on days 1, 2 and 3): +40% | % Increased Life Span ([9]; 10 mg/kg i.p., every 4 hours for 3 doses on days 1-4): +80% | % Increased Life Span ([9]; 20 mg/kg i.p., every hour for 8 doses on days 1 and 3): +60% | % Increased Life Span ([9]; 182 mg/kg i.p., day 1, 5, 9): +20% | activity against yellow fever virus [5]: some activity | activity at 0.2 µM ([1]; Mus musculus, read-out: % of Control, compound alone, 2 × 10^-7 M (experiment with Ca leucovorin)): 36% | activity at 0.2 µM ([1]; Mus musculus, read-out: % of Control, compound alone, 2 × 10^-7 M (experiment with hypoxanthine)): 40% | IC50 [4]: 110 nM | MIC [6]: 0.01 µM (≈ 0.00432 µg/mL) | activity against the mycoplasma, Spiroplasma citri [6]: activity | activity against Streptococcus faecium [10]: activity

O=c1[nH]cnc2nc[nH]c12 [hypoxanthine]
reversal of the cytotoxicity of the compound of Example 1 [7]: able to reverse the cytotoxicity | reversal of the cytotoxicity of the compound of Example 3 [7]: able to reverse the cytotoxicity
